Measurements from PubChem BioAssay AID1918948 (Molecular Pharmacology Branch, DTP, NCI, 2023).

Test system: K-562 leukemia growth, % test/control
Experiment: Anticancer human tumor K-562 cell line growth inhibition;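 further: spheroids exposed to compounds for 7 days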;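 on viability, T/C: 100% = DMSO vehicle wells and lower values mean fewer viable cells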
Details: spheroids with HUVEC and MSC; for IC50: curve of first compound; for viability, T/C: stronger effect = lower value
Procedure, shortened: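 Drug combinations with the LSD1 inhibitor iadademstat tested on tumor cells co-cultured as spheroids with endothelial cells and mesenchymal stem cells. Concentrations descended in half-log increments from clinical Cmax or 10 microM.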

[1] = second compound 0.1 µM, first compound 0.00949 µM
[2] = second compound 0.1 µM, first compound 0.03 µM
[3] = second compound 0.1 µM, first compound 0.0949 µM
[4] = second compound 0.1 µM, first compound 0.3 µM
[5] = second compound 0.316 µM, first compound 0.00949 µM
[6] = second compound 0.316 µM, first compound 0.03 µM
[7] = second compound 0.316 µM, first compound 0.0949 µM
[8] = second compound 0.316 µM, first compound 0.3 µM
[9] = second compound 1 µM, first compound 0.00949 µM
[10] = second compound 1 µM, first compound 0.03 µM
[11] = second compound 1 µM, first compound 0.0949 µM
[12] = second compound 1 µM, first compound 0.3 µM
[13] = second compound 3.16 µM, first compound 0.00949 µM
[14] = second compound 3.16 µM, first compound 0.03 µM
[15] = second compound 3.16 µM, first compound 0.0949 µM
[16] = second compound 3.16 µM, first compound 0.3 µM
[17] = second compound 10 µM, first compound 0.00949 µM
[18] = second compound 10 µM, first compound 0.03 µM
[19] = second compound 10 µM, first compound 0.0949 µM
[20] = second compound 10 µM, first compound 0.3 µM

Structure (SMILES)	IC50 (second compound 0.1 µM)	IC50 (second compound 0.316 µM)	IC50 (second compound 1 µM)	IC50 (second compound 3.16 µM)	IC50 (second compound 10 µM)	viability, T/C [1]	viability, T/C [2]	viability, T/C [3]	viability, T/C [4]	viability, T/C [5]	viability, T/C [6]	viability, T/C [7]	viability, T/C [8]	viability, T/C [9]	viability, T/C [10]	viability, T/C [11]	viability, T/C [12]	viability, T/C [13]	viability, T/C [14]	viability, T/C [15]	also measured
CCN(c1cc(-c2ccc(CN3CCOCC3)cc2)cc(C(=O)NCc2c(C)cc(C)[nH]c2=O)c1C)C1CCOCC1 + NC1CC1c1ccc(-c2cccc(O)c2)cc1	2040 nM	1940 nM	1790 nM	1650 nM	904 nM	116%	117%	116%	110%	115%	117%	115%	108%	108%	111%	118%	110%	109%	111%	114%	viability, T/C (second compound 0.1 µM, first compound 0.949 µM): 82.9%; viability, T/C (second compound 0.1 µM, first compound 3 µM): 33.5%; viability, T/C (second compound 0.316 µM, first compound 0.949 µM): 80.5%; viability, T/C (second compound 0.316 µM, first compound 3 µM): 31.6%; viability, T/C (second compound 1 µM, first compound 0.949 µM): 75.9%; viability, T/C (second compound 1 µM, first compound 3 µM): 28.9%; viability, T/C [16]: 103%; viability, T/C (second compound 3.16 µM, first compound 0.949 µM): 70.8%; viability, T/C (second compound 3.16 µM, first compound 3 µM): 27.7%; viability, T/C [17]: 105%; viability, T/C [18]: 109%; viability, T/C [19]: 109%; viability, T/C [20]: 92.2%; viability, T/C (second compound 10 µM, first compound 0.949 µM): 48.5%; viability, T/C (second compound 10 µM, first compound 3 µM): 20.1%
Nc1ncn(C2CC(O)C(CO)S2)c(=O)n1 (stereo not given) + NC1CC1c1ccc(-c2cccc(O)c2)cc1	91.1 nM	84.4 nM	79 nM	76.8 nM	55.8 nM	107%	93.2%	48.4%	17.1%	103%	90.3%	45.5%	16.3%	104%	88%	42.9%	15.6%	102%	85.6%	42.1%	viability, T/C (second compound 0.1 µM, first compound 0.000949 µM): 110%; viability, T/C (second compound 0.1 µM, first compound 0.003 µM): 108%; viability, T/C (second compound 0.316 µM, first compound 0.000949 µM): 103%; viability, T/C (second compound 0.316 µM, first compound 0.003 µM): 104%; viability, T/C (second compound 1 µM, first compound 0.000949 µM): 102%; viability, T/C (second compound 1 µM, first compound 0.003 µM): 103%; viability, T/C (second compound 3.16 µM, first compound 0.000949 µM): 98.5%; viability, T/C (second compound 3.16 µM, first compound 0.003 µM): 105%; viability, T/C [16]: 16.3%; viability, T/C (second compound 10 µM, first compound 0.000949 µM): 98.8%; viability, T/C (second compound 10 µM, first compound 0.003 µM): 101%; viability, T/C [17]: 98%; viability, T/C [18]: 72.6%; viability, T/C [19]: 30.5%; viability, T/C [20]: 12.3%
